Reference: patent US12186283B2, “Bismuth-thiol compositions and methods of use” (Microbion Corporation, priority 2018, dated 2025)
Read-outs that look alike come from different tables or passages of the source. Marks after values point to notes of the source that are not given here.

Tests used:
[1] = test system: Candida spp.; experiment: Broth microdilution MIC, yeast (Example 13), group statement and QC; assay type: cell-based; conditions: C. parapsilosis ATCC 22019, footnote b not given
[2] = test system: M. avium; experiment: MIC against CF isolates (Example 5); assay type: cell-based; conditions: Mycobacterium avium, strain MAC101, M. avium, MAC reference strain, blood isolate from HIV patient
[3] = test system: Candida krusei; experiment: Broth microdilution MIC, yeast (Example 13); assay type: cell-based; conditions: for MIC: Pichia kudriavzevii
[4] = test system: Aspergillus spp.; experiment: Broth microdilution MIC/MEC, mold (Example 13); assay type: cell-based; conditions: for MEC (minimum effective concentration): read-out: MEC at 48 hr (MIC0 not observed)
[5] = test system: S. aureus ATCC 29213; conditions: control strain ATCC 29213 S. aureus; per CLSI M100-S24 or provided by Microbion; cited from earlier work
[6] = test system: S. aureus ATCC 29213; experiment: Broth microdilution MIC, QC organism (Example 13, Table 110); assay type: cell-based, Staphylococcus aureus
Source text: MECs were only reported where observed.

[7] = test system: Acinetobacter baumannii; experiment: Broth microdilution MIC (Example 11); assay type: cell-based; conditions: A. baumannii MMX 3373; Sensitive
[8] = test system: anaerobes (Bacteroides fragilis and Clostridium difficile); experiment: Agar dilution MIC (Example 11), group statement; assay type: cell-based; conditions: B. fragilis and C. difficile QC isolates, C. difficile ribotypes incl. 027
Procedure: The test agents were stored at room temperature until assayed. All test agents were suspended and diluted in 100% dimethylsulfoxide (DMSO), and were ultimately tested at a final concentration of 0.06-64 μg/mL.
The susceptibility of anaerobic bacteria was determined by agar dilution using Brucella Agar (BD/BBL; Lot No. 5237692) supplemented with 5 μg/mL hemin (Sigma, St. Louis, MO; Lot No. 108K1088), 1 μg/mL Vitamin K1 and 5% (v/v) laked sheep blood (Cleveland Scientific, Bath, OH; Lot No. 322799).
MIC values for anaerobic bacteria were determined using a reference agar dilution method as described by CLSI (6). Organisms were grown at 35° C. in the Bactron II Anaerobic Chamber (Shel Lab, Cornelius, OR) for approximately 48 hr prior to the assay. Drug dilutions and drug-supplemented agar plates were prepared manually per CLSI (6). The plates were allowed to stand at room temperature for 1 hr to allow the agar surface to dry and pre-reduced for approximately 1 hr in the anaerobe chamber prior to inoculation. Each isolate was suspended to the equivalent of a 0.5 McFarland standard in Brucella broth using a turbidity meter (Dade Behring MicroScan, West Sacramento, CA). Each bacterial cell suspension was then diluted 1:10 in Brucella broth and transferred to wells in a stainless steel replicator block which was used to inoculate the test plates. […] The MIC was read per CLSI guidelines (6).

[9] = test system: S. pneumoniae (pneumococci); experiment: Broth microdilution MIC (Example 11); assay type: cell-based, Streptococcus pneumoniae; conditions: pneumococci incl. multi-drug resistant
[10] = test system: Pseudomonas aeruginosa strain PA01; experiment: Bacterial killing curves with and without 10% CF patient sputum; conditions: for bactericidal activity: PA01, 0.1 μg/mL; for effect of CF patient sputum on bactericidal activity: PA01, 10% CF patient sputum
[11] = Rat single-dose PK: whole blood BisEDT (bismuth by ICP-MS)
[12] = test system: Escherichia coli; conditions: cited from earlier work
[13] = test system: S. aureus ATCC 29213; conditions: CLSI established QC range; cited from earlier work
[14] = test system: E. coli ATCC 25922; conditions: control strain ATCC 25922 E. coli; per CLSI M100-S24 or provided by Microbion; cited from earlier work
[15] = test system: P. aeruginosa; conditions: P. aeruginosa isolate 103, CLSI QC range in parenthesis, cited from earlier work
[16] = Phase 1 human clinical studies, topical administration; assay type: in vivo; conditions: humans
[17] = test system: Pseudomonas aeruginosa; conditions: P. aeruginosa ATCC 27853, QC organism; cited from earlier work
[18] = test system: Klebsiella pneumoniae; conditions: K. pneumoniae ATCC BAA-1705, QC organism; cited from earlier work
[19] = test system: P. aeruginosa; experiment: Checkerboard FIC assay, BisEDT with CF agents (Example 10); assay type: cell-based, Pseudomonas aeruginosa; conditions: agent alone, as observed during FIC testing
[20] = E. coli ATCC 25922, QC organism

With `CC(S)C(C)S.[Bi]` (stereo not drawn) [BisBDT, bismuth-2,3-butanedithiol] the “MIC 24 hr, second value of the pair x/y” value ([1]; 24 hr) was 2, the “MIC 48 hr, second value of the pair x/y” value ([1]; 48 hr) was 4 and the MIC [2] was 1 µg/mL. The “MIC 24 hr, second value of the pair x/y” value ([3]; C. krusei ATCC 6258 (QC, Table 110), 24 hr, footnote b not given) was 1, the “MIC 48 hr, second value of the pair x/y” value ([3]; C. krusei ATCC 6258 (QC, Table 110), 48 hr, footnote b not given) was 4 and the “MIC 48 hr, first value of the pair x/y” value ([3]; C. krusei ATCC 6258 (QC, Table 110), 48 hr, footnote b not given, probably MIC2) was 1. For the same compound, the MIC ([3]; read-out: MIC2 (50% inhibition)) was 0.5 µg/mL, the MIC ([3]; read-out: MIC2 (50% inhibition), C. krusei MMX 7125, Susceptible) was 0.5 µg/mL and the MIC ([3]; read-out: MIC2 (50% inhibition), C. krusei MMX 7155, Susceptible) was 0.5 µg/mL. The MIC ([3]; read-out: MIC2 (50% inhibition), C. krusei MMX 7563, Susceptible) was 0.5 µg/mL, the MIC ([3]; read-out: MIC2 (50% inhibition), C. krusei MMX 9878, MICA-I, VORI-I) was 0.5 µg/mL and the MIC ([4]; 24 h, A. flavus ATCC 22546, 24 hr, read-out: MIC0 24 hr (complete inhibition)) was 1 µg/mL. For the same compound, the MIC ([4]; 24 h, A. flavus ATCC 204304, 24 hr, read-out: MIC0 24 hr (complete inhibition)) was 4 µg/mL, the MIC ([4]; 24 h, A. flavus MMX 7935, 24 hr, read-out: MIC0 24 hr (complete inhibition)) was 8 µg/mL and the MIC ([4]; 24 h, A. fumigatus ATCC 204305, 24 hr, read-out: MIC0 24 hr (complete inhibition)) was 8 µg/mL. It also gave an MIC ([4]; 24 h, A. fumigatus ATCC MYA-3626, 24 hr, read-out: MIC0 24 hr (complete inhibition)) of 2 µg/mL, an MIC ([4]; 24 h, A. fumigatus MMX 5934, 24 hr, read-out: MIC0 24 hr (complete inhibition)) of 2 µg/mL and an MIC ([4]; 24 h, A. fumigatus MMX 5939, 24 hr, read-out: MIC0 24 hr (complete inhibition)) of 2 µg/mL. The MIC ([4]; 24 h, read-out: MIC0 24 hr (complete inhibition), A. terreus MMX 8229, 24 hr) was 0.25 µg/mL, the MIC ([4]; 48 h, A. flavus ATCC 22546, 48 hr, read-out: MIC0 48 hr (complete inhibition)) was 2 µg/mL and the MEC (minimum effective concentration) ([4]; 48 h, A. flavus ATCC 204304, 48 hr) was 4 µg/mL. For the same compound, the MIC ([4]; 48 h, A. flavus MMX 7935, 48 hr, read-out: MIC0 48 hr (complete inhibition)) was 8 µg/mL, the MEC (minimum effective concentration) ([4]; 48 h, A. fumigatus ATCC 204305, 48 hr) was 4 µg/mL and the MIC ([4]; 48 h, A. fumigatus ATCC MYA-3626, 48 hr, read-out: MIC0 48 hr (complete inhibition)) was 4 µg/mL. For the same compound, the MEC (minimum effective concentration) ([4]; 48 h, A. fumigatus MMX 5934, 48 hr) was 4 µg/mL, the MEC (minimum effective concentration) ([4]; 48 h, A. fumigatus MMX 5939, 48 hr) was 4 µg/mL and the MIC ([4]; 48 h, A. terreus MMX 8229, 48 hr, read-out: MIC0 48 hr (complete inhibition)) was 1 µg/mL. The MIC 24 hr ([4]; A. flavus ATCC 204304 (QC, Table 110), 24 hr) was 4 µg/mL, the “MIC 48 hr, marked with footnote c” value ([4]; A. flavus ATCC 204304 (QC, Table 110), 48 hr, footnote c not given, probably MEC) was 4^c and the MIC 24 hr ([4]; A. fumigatus ATCC MYA-3626 (QC, Table 110), 24 hr) was 2 µg/mL. For the same compound, the MIC 48 hr ([4]; A. fumigatus ATCC MYA-3626 (QC, Table 110), 48 hr) was 4 µg/mL, the MIC ([4]; read-out: MIC0 48 hr (complete inhibition)) was 2 µg/mL and the “Expected MIC: goal” value [5] was 0.25 µg/mL. The “MIC 24 hr” value [6] was 1^a, the MIC [7] was 0.5 µg/mL and the “MIC values (range across isolates)” value [8] was 1 to 4 µg/mL. The “MIC values (range across isolates)” value [9] was 0.5 to 8 µg/mL, the bactericidal activity [10] was “not bactericidal” and the “more surviving in cultures with sputum” value ([10]; PA01, 4 μg/mL, 10% CF sputum, 3-6 hours) was 0.5-0.8 log CFU/mL. For the same compound, the “killing over the assay” value ([10]; PA01, 4 μg/mL, absence of sputum, 6 hour assay) was “about 1 log”, the “time to sterilization below the limit of detection” value ([10]; PA01, 20 μg/mL, with and without sputum) was no more than 5 h and the “effect of CF patient sputum on bactericidal activity” value [10] was “partially inhibited”.
In the case of `C1C[S][Bi]([S]CC[S][Bi]2[S]CC[S]2)[S]1` [BisEDT, bismuth-1,2-ethanedithiol], the “duration of initial distribution into tissues” value ([11]; IV dosing, biphasic pattern) is reported as 18 h, the “systemic levels lower than in the lung” value ([11]; inhalation dosing) is reported as “about 10 ×” and the blood exposure ([11]; inhalation dosing 100 μg/kg) is reported as “sustained, moderate, blood exposure with relatively stable concentrations across time”. For the same compound, the blood concentrations ([11]; oral dosing 250 μg/kg) was “very low, but sustained and measurable”, the “MIC, QC range” value [12, 20] was “(0.5-4)^1 μg/mL” and the “QC Range 24 hr” value [13] was 0.12-1. The “Expected MIC: acceptable range” value [14] was 0.5 to 2 µg/mL, the “Expected MIC: goal” value [14] was 1 µg/mL and the “MIC, CLSI QC range” value ([15]; Table 24) was “(0.5-4)^2 μg/mL”. The “MIC, CLSI QC range” value ([15]; Table 26) was “(0.5-4) μg/mL”, the concentration well-tolerated ([16]; administered topically for 6 hours) was “up to 2500 μg/cm^2” and the concentration tolerated ([16]; topical, over 21 days continuous exposure to normal and abraded skin) was “up to 75 μg/cm^2”. The “Expected MIC: goal” value [5] was 0.25 to 0.5 µg/mL, the “MIC, QC range” value [17] was “(0.5-4) μg/mL” and the bactericidal activity [10] was “not bactericidal”. The “effect of CF patient sputum on bactericidal activity” value [10] was “partially inhibited”.
For `C[C@@H](O)[C@H]1C(=O)N2C(C(=O)O)=C(S[C@@H]3CN[C@H](C(=O)N(C)C)C3)[C@H](C)[C@H]12` [MEM], the “MIC, QC range” value [18] is given as “(8-64) μg/mL”, the “MIC, QC range” value [12, 20] is given as “(0.008-0.06) μg/mL” and the “MIC, QC range” value ([12]; E. coli ATCC 35218, QC organism) is given as “(0.008-0.06) μg/mL”. It also gave an MIC ([19]; P. aeruginosa isolate 6322) of 16 µg/mL, an MIC ([19]; P. aeruginosa isolate 6977) of 8 µg/mL and an MIC ([19]; P. aeruginosa isolate 7745) of 16 µg/mL. The MIC ([19]; P. aeruginosa isolate 8798) was 32 µg/mL, the MIC ([19]; P. aeruginosa isolate 9108) was 1 µg/mL and the “MIC, CLSI QC range” value ([15]; Table 24) was “(0.12-1) μg/mL”. For the same compound, the “MIC, CLSI QC range” value ([15]; Table 26) was “(0.12-1) μg/mL” and the “MIC, QC range” value [17] was “(0.12-1) μg/mL”.
